Measurements published in patent US6384193B1, “Agents for the regulation of oestrogen synthesis” (Imperial College of Science Technology and Medicine, priority 1996, dated 2002).

Tests used:
[1] = tested on: MCF-7 breast cancer cells; conditions: MCF-7 cells, Singh et al. 1995, cited from earlier work
aromatase activity = conditions: IL-6 stimulated fibroblasts derived from sub-cutaneous adipose tissue; Singh et al. 1995; cited from earlier work
[2] = tested on: IL-6 plus IL-6sR stimulated aromatase activity; experiment: IL-6 plus IL-6sR stimulated aromatase activity in fibroblasts derived from normal breast tissue; format: cell-based; conditions: Arohib 125 μM added 3 h prior to IL-6 50 ng/ml + IL-6sR 100 ng/ml, serum-free medium
Description: Aromatase activity was assessed in primary cultures of stromal fibroblasts derived from sub-cutaneous adipose tissue. Cells were grown until 80% confluent when they were washed with Earle's balanced salt solution (5 ml) and cultured for 24 h in phenol red-free, serum-free Eagle's minimum essential medium. Experimental media were then added in the presence of dexamethasone (100 nmol/l), IL-6 (50 ng/ml, Bachem, Cambridge, U.K.), or IL-6 plus IL-6sR (250 ng/ml, R & D System Europe Ltd., Abingdon, U.K.) and incubated for a further 48 h.
Aromatase activity was assayed in intact fibroblast monolayers by measuring the production of hu 3H2O from [1β-^3H] androstenedione (15-30 Ci/mmol, NEN-DuPont, Stevenage, U.K.) over a 20 h period (Newton et al., 1986). Aromatase activity measured under these conditions was linear with respect to time for up to 20 h (Macdiarmid et al., 1994). Cell number was determined by counting cell nuclei using a Coulter counter.
To examine the ability of Arohib to block the interaction of IL-6sR with gp130, fibroblasts were derived from normal breast tissue and cultured in growth medium containing fetal calf serum. When cells were 80% confluent, this medium was removed and replaced with serum-free medium. Cells were then treated as shown below with the results illustrated in FIG. 2.

Molecule | effect on IL-6sR release [1] | also measured
4-hydroxytamoxifen [4-OHT] | small stimulatory effect | effect on oestradiol-induced increase of IL-6sR release ([1]; with oestradiol): blocked the ability of oestradiol to increase IL-6sR release
C[C@]12CC[C@@H]3c4ccc(O)cc4CC[C@H]3[C@@H]1CC[C@@H]2O [Oestradiol, oestradiol] | markedly increased | –
IL-6: cytokine interleukin-6 | – | aromatase activity (in words) (aromatase activity): Significant arbmatase activity was detectable
TNFα | markedly increased | –
YRLRFELRYRAERSKT (PEPTIDE (1)..(16) sequence of a synthetic peptide corresponding to the regulatory site residues 249-264 of interleukin-6 receptor (IL-6R)) [Arohib, 16 amino acid peptide based upon part of the IL-6R external domain] | – | reduction in the ability of IL-6/IL-6sR to stimulate aromatase activity [2]: 67%
